Laboratory results as given in patent US4977153A, “3-aminopropyloxyphenyl derivatives, pharmaceutical compositions containing them and method for the therapy of diseases” (Louis; William J., priority 1985, dated 1990).
Where two headings read alike, the source gives them in different places. Blank lines part the entries; values can stand above or below the molecule they belong to.

How the values were obtained:
[1] = target: T1, beta adrenoceptor (guinea pig atrium) (Cavia porcellus, UniProt H0W3H1); assay: beta adrenoceptor blocking activity in the spontaneously beating guinea pig atrium (inhibition of positive chronotropic isoproterenol effect); assay type: cell-based
T1 construct: in the spontaneously beating guinea pig atrium; from tissue; host or cells: guinea pig atrium, spontaneously beating
T1 sequence (H0W3H1 1-470): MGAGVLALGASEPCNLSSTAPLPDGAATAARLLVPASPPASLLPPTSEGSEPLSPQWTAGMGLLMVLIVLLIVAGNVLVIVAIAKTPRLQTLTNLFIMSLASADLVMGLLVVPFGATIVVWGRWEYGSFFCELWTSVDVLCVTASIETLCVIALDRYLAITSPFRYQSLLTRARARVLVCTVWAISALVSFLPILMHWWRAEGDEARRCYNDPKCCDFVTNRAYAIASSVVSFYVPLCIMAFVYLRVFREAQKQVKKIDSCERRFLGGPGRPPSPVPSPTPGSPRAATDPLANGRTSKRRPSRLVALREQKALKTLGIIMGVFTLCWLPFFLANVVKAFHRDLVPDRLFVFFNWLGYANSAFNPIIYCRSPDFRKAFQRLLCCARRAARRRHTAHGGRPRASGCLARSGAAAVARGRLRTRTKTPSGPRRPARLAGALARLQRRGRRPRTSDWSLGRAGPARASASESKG

[2] = tested on: resting heart rate in the pithed rat; assay: intrinsic sympathomimetic activity: increase in resting heart rate in the pithed rat; assay type: in vivo; conditions: maximum effect of cumulative doses of drug up to 3 mg/kg
[3] = target: T2, beta adrenoceptor (heart) (Rattus norvegicus, UniProt P18090); assay: inhibition of isoproterenol-induced tachycardia in the pithed rat; assay type: in vivo; conditions: read-out: Pithed Rat Effective Dose (ID50)
T2 construct: from tissue; host or cells: heart in the whole animal (pithed rat, in vivo)
T2 sequence (P18090 whole entry): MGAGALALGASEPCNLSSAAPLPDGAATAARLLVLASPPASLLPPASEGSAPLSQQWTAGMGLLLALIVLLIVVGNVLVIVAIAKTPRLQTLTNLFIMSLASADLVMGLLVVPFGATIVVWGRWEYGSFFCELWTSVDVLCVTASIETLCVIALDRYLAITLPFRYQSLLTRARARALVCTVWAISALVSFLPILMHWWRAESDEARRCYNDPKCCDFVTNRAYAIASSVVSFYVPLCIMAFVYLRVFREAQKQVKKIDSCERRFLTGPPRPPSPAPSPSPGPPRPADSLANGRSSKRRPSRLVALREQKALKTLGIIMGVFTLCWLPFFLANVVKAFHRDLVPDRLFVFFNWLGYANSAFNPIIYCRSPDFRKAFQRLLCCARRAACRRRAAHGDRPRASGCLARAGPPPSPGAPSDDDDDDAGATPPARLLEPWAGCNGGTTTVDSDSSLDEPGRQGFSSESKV

[4] = target: T3, beta adrenoceptor (guinea pig trachea) (Cavia porcellus, UniProt Q8K4Z4); assay: inhibition of isoproterenol-induced relaxation in guinea pig tracheal preparations (cardioselectivity); assay type: cell-based; conditions: guinea pig trachea, in words
T3 construct: tracheal preparations of the guinea pig; from tissue; host or cells: guinea pig tracheal muscle
T3 sequence (Q8K4Z4 whole entry): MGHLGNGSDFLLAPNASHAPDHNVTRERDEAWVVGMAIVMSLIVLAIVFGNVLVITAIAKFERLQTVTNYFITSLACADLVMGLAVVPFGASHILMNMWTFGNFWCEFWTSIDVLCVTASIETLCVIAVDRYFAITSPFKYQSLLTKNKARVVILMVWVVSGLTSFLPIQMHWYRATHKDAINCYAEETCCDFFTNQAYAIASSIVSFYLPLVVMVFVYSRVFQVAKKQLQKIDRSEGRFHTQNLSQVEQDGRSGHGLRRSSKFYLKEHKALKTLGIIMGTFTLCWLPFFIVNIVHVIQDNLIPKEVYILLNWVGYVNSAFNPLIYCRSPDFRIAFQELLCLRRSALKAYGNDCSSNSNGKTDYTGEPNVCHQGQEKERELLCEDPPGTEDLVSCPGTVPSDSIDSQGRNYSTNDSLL

[5] = tested on: beta adrenoceptor (guinea pig trachea); assay: as above; assay type: cell-based; conditions: selectivity index, guinea pig trachea vs atrium
[6] = tested on: resting heart rate in the pithed rat; conditions: in words; cited from earlier work
[7] = in words; cited from earlier work
[8] = dose which doubles the concentration of isoproterenol needed to elicit a 50% increase in heart rate, spontaneously beating guinea pig atrium, read-out: Guinea Pig Atrium, Effective Molar Dose (ID50)
[9] = inhibition of isoproterenol-induced tachycardia, pithed rat

SMILES: COCCOc1ccc(OCC(O)CNCCNC(=O)Nc2ccc3[nH]ccc3c2)c(C#N)c1 (stereo not drawn) [Example 6]
Kb [1, 8]: 13 nM

ED50 [3, 9]: 0.1 mg/kg
SMILES: N#Cc1cc(OCCOCc2ccc(F)cc2)ccc1OCC(O)CNCCNC(=O)Nc1ccc2[nH]ccc2c1 (stereo not drawn) [Example 19]
Kb [1, 8]: 100 nM
Maximum Change in Resting Heart Rate in the Pithed Rat [2]: +51

ED50 [3, 9]: 0.003 mg/kg
SMILES: CCCOCCOc1ccc(OCC(O)CNCCNC(=O)c2ccoc2)cc1 (stereo not drawn) [Example 28]

SMILES: CC(C)NCC(O)COc1ccc(CCOCC2CC2)cc1 (stereo not drawn) [Betaxolol, reference compound]
Maximum Change in Resting Heart Rate in the Pithed Rat [2]: 0

SMILES: CC(C)NCC(O)COc1cccc2[nH]ccc12 (stereo not drawn) [Pindolol, reference compound]
Maximum Change in Resting Heart Rate in the Pithed Rat [2]: +89

SMILES: CCCOCCOc1ccc(OCC(O)CNCCNC(=O)Cc2ccc3[nH]ccc3c2)c(C#N)c1 (stereo not drawn) [Example 9]
Kb [1, 8]: 25 nM

ED50 [3, 9]: 0.03 mg/kg
SMILES: O=C(NCCNCC(O)COc1ccc(OCCOCC2CC2)cc1)c1ccco1 (stereo not drawn) [Example 23]
Maximum Change in Resting Heart Rate in the Pithed Rat [2]: +42

SMILES: CC(C)NCC(O)COc1ccc(CC(N)=O)cc1 (stereo not drawn) [Atenolol, reference compound]
Kb [1]: 200 nM
blocking actions of the isoproterenol response in the trachea [4]: significant blocking actions of the isoproterenol response in the trachea
Maximum Change in Resting Heart Rate in the Pithed Rat [2]: 0
ED50 ([3]; rat): 0.03 mg/kg

ED50 [3, 9]: 0.002 mg/kg
SMILES: CCCOCCOc1ccc(OCC(O)CNCCNC(=O)Nc2ccc3[nH]ccc3c2)c(C#N)c1 (stereo not drawn) [Example 1, N-[2-[3-[2-cyano-4-(2-propoxyethoxy)phenoxy]-2-hydroxypropylamino]-ethyl]-N'-(1H-indol-5-yl)-urea]
Kb [1, 8]: 3 nM
selectivity (cardiac atrial vs tracheal) [5]: 17000
Maximum Change in Resting Heart Rate in the Pithed Rat [2]: +101

SMILES: CCCOCCOc1ccc(OCC(O)CNCCNC(=O)Cc2ccsc2)c(C#N)c1 (stereo not drawn) [Example 11]
Kb [1, 8]: 12 nM
Maximum Change in Resting Heart Rate in the Pithed Rat [2]: +66

ED50 [3, 9]: 0.05 mg/kg
SMILES: CCCOCCOc1ccc(OCC(O)CN[C@H](C)CNC(=O)c2ccco2)cc1 (stereo partly drawn) [Example 29]
Kb [1, 8]: 30 nM

SMILES: CCCOCCOc1ccc(OCC(O)CNCCNC(=O)c2ccc3[nH]ccc3c2)c(C#N)c1 (stereo not drawn) [Example 20]
Kb [1, 8]: 50 nM

SMILES: CCCOCCOc1ccc(OCC(O)CN[C@H](C)CNC(=O)c2ccco2)c(F)c1 (stereo partly drawn) [Example 33]
Kb [1, 8]: 8 nM

SMILES: CCCCOCCOc1ccc(OCC(O)CNCCNC(=O)Nc2ccc3[nH]ccc3c2)c(C#N)c1 (stereo not drawn) [Example 13]
Maximum Change in Resting Heart Rate in the Pithed Rat [2]: +105

SMILES: CC(C)NCC(O)COc1cccc2ccccc12 (stereo not drawn) [Propranolol]
intrinsic sympathomimetic activity (ISA), known drug [6]: no ISA
plasma cholesterol effect, known drug [7]: elevated plasma cholesterol
rebound hypersensitivity after cessation, known drug [7]: rebound hypersensitivity occurring after cessation
Maximum Change in Resting Heart Rate in the Pithed Rat [2]: 0

SMILES: N#Cc1cc(OCCOCCc2ccccc2)ccc1OCC(O)CNCCNC(=O)Nc1ccc2[nH]ccc2c1 (stereo not drawn) [Example 14]
Kb [1, 8]: 10 nM
